In brackets after ≈: the same amount, converted by molar mass.

The conditions of the series: buffer; pH 7.4; 200.0 µM.
For `c1csc(-c2nnc(COc3ncnc4sccc34)o2)c1`, the solubility (kinetic) was above 47.5 µg/mL.

Compound `COc1ccc(-c2cn3ccc(C)cc3n2)cc1` showed a kinetic solubility of 33.1 µg/mL (≈ 139 µM).

`CCn1c(C)cc(C(=O)COC(=O)c2ccccc2[N+](=O)[O-])c1C`: the kinetic solubility was determined as 15.3 µg/mL (≈ 46.3 µM).

`CC1=CC(=C(C#N)C#N)C=C(C)N1CCC(C)C` had a kinetic solubility of 1.7 µg/mL (≈ 7.04 µM).

In the case of `CCOC(=O)CSc1[nH]c2cc(OC)ccc2c1[N+](=O)[O-]`, the solubility (kinetic) turned out to be 29.3 µg/mL (≈ 94.4 µM).

`O=C(O)c1ccc(Cn2c(=S)[nH]c3cc(Cl)ccc3c2=O)cc1`: the kinetic solubility is above 52 µg/mL.

In turn, `Cc1ccc(C)c(C(=O)COC(=O)CN2C(=O)C3C4CCC(C4)C3C2=O)c1` (configuration not stated) returned a solubility (kinetic) above 55.4 µg/mL.

In the case of `CC(=O)NNc1cc(C)nc(N)n1`, the solubility (kinetic) is above 27.2 µg/mL.

In the case of `O=C(N/C(=C/c1ccco1)C(=O)N1CCOCC1)c1ccc([N+](=O)[O-])cc1`, the kinetic solubility is above 55.7 µg/mL.

Regarding `COc1ccc(CCNC(=O)c2cccnc2SC)cc1`, the kinetic solubility was 16 µg/mL (≈ 52.9 µM).

Take `N#CCc1nc2ccccc2c(=O)[nH]1`: the solubility (kinetic) was above 27.8 µg/mL.

Regarding `O=C1CCc2cc(S(=O)(=O)Nc3ccc(F)cc3)ccc2N1`, the kinetic solubility is above 48.1 µg/mL.

In the case of `CCOc1ccc(NC(=O)NC2CCS(=O)(=O)C2)cc1` (configuration not stated), the kinetic solubility is above 44.8 µg/mL.

On to `CN1CCN(c2ccc(Cl)cc2N)CC1`, for which the solubility (kinetic) is 30.6 µg/mL (≈ 136 µM).

Compound `CCOC(=O)/C(C#N)=C/c1c(Oc2cccc(C)c2)nc2ccccn2c1=O` registered a kinetic solubility of 0.7 µg/mL (≈ 1.86 µM).

For `O=c1sc2ccccc2c(N2CCCCC2)c1[N+](=O)[O-]`, the solubility (kinetic) was found to be 20.4 µg/mL (≈ 70.3 µM). Against the preceding compound, the solubility kinetic is about 29-fold higher.

In turn, `Cc1cccc(OCC(=O)NCC(c2ccco2)N2CCCC2)c1` (configuration not stated) returned a solubility (kinetic) above 49.3 µg/mL.

`O=c1c2nccnc2[nH]c(=S)n1Cc1ccccc1Cl` yielded a solubility (kinetic) above 45.7 µg/mL.

Take `O=C1c2ccccc2CN1C(CO)Cc1ccccc1` (configuration not stated): the solubility (kinetic) is above 40.1 µg/mL.

In turn, `Cc1ccc(NC(=O)O/N=C/c2ccc(Br)cc2)cc1` gave a solubility (kinetic) of 1.4 µg/mL (≈ 4.2 µM).

The compound `O=C1NC(=O)/C(=C/c2ccccn2)S1` showed a kinetic solubility above 30.9 µg/mL.

The compound `O=C(Cc1ccccc1)NNC(=S)NC(=O)c1cccnc1` came in with a solubility (kinetic) above 47.2 µg/mL.

Turning to `CCC(C)[C@H](NC(=O)N1CCC(C)CC1)C(=O)OC` (some centres not stated), the kinetic solubility is above 40.6 µg/mL.

Take `O=C(COC(=O)Cc1ccc(S(=O)(=O)N2CCOCC2)s1)Nc1ccc(F)cc1F`: the solubility (kinetic) was above 69.1 µg/mL.

For `CC(=O)NC(Cc1ccccc1)C(C)=O` (configuration not stated), the solubility (kinetic) was above 30.8 µg/mL.

`Cc1ccccc1NC(=O)OCc1ccccc1` registered a solubility (kinetic) of 23.7 µg/mL (≈ 98.2 µM).

For the compound `Cc1nc2cc(NS(=O)(=O)c3ccccc3F)ccc2s1`, the kinetic solubility was 35.6 µg/mL (≈ 110 µM).

In turn, `CC(=O)C1=NOC2C(=O)N(c3ccc(Cl)cc3)C(=O)C12` (configuration not stated) showed a solubility (kinetic) above 43.9 µg/mL.

`CCOC(=O)/C(C#N)=C1/C=C(C)c2ccccc2N1` returned a solubility (kinetic) of 0.4 µg/mL (≈ 1.57 µM).

`N#C/C(=C\c1c[nH]c2ccc(Br)cc12)c1ccccn1`: the kinetic solubility amounted to 0.8 µg/mL (≈ 2.47 µM).

Regarding `Cc1sc2ncnc(NCC(c3ccccc3)N(C)C)c2c1C` (configuration not stated), the kinetic solubility was found to be 47.1 µg/mL (≈ 144 µM).

`CN(C)C(=O)c1ccc(-n2cnc3ccccc3c2=O)cc1` displayed a solubility (kinetic) above 44 µg/mL.

The compound `COc1ccc(NC(=O)[C@@H]2CCCN2S(=O)(=O)c2ccccc2F)cc1S(=O)(=O)N1CCCCC1` showed a kinetic solubility of 37.1 µg/mL (≈ 70.6 µM).

Take `CCCCn1c(C)c(C(=O)OCC)c2c(CN3CCCC3)c(O)ccc21`: the solubility (kinetic) came to 53.1 µg/mL (≈ 148 µM).

In turn, `CC(C)[C@H](NC(=O)c1ccccc1F)C(=O)NCCc1ccccc1` yielded a kinetic solubility of 26.4 µg/mL (≈ 77.1 µM).

On to `COc1ccc(OC)c(Cc2nnc(CCC(=O)N3CCCCCC3)o2)c1`, for which the kinetic solubility was above 56 µg/mL.

As for `O=C(OCC(=O)N1CCN(c2ccc(F)cc2)CC1)c1cnc2ccccc2n1`, the solubility (kinetic) amounted to 19.5 µg/mL (≈ 49.4 µM).

`N#C/C(=C\c1ccccc1)C(=O)Nc1cccnc1` had a solubility (kinetic) of 18.3 µg/mL (≈ 73.4 µM). The solubility kinetic values of the last two compounds are within 1.5-fold of each other.

As for `O=C(COC(=O)CCC(=O)c1ccc(Cl)cc1)NCc1ccc(F)cc1`, the kinetic solubility was determined as 6.4 µg/mL (≈ 16.9 µM). This solubility kinetic is about 2.9-fold lower than that of the compound before.

On to `Cc1cc(C(=O)Nc2ccc(Br)cc2)cs1`, for which the solubility (kinetic) was 0.7 µg/mL (≈ 2.36 µM).

The compound `O=C(c1cccc2nc3ccccc3nc12)N1CCOCC1` yielded a solubility (kinetic) of 40.9 µg/mL (≈ 139 µM).

Compound `CN(CC(=O)Nc1ccc(F)cc1)C(=O)Cn1cnc2ccc([N+](=O)[O-])cc2c1=O` yielded a solubility (kinetic) of 5.6 µg/mL (≈ 13.5 µM).

As to `CC(C)(C)C1CCC(=NOC(=O)c2ccc(F)cc2)CC1` (configuration not stated), the solubility (kinetic) was 1.3 µg/mL (≈ 4.46 µM).

Consider `CC1c2ccsc2CCN1S(=O)(=O)c1cccs1` (configuration not stated), for which the solubility (kinetic) stood at 23.5 µg/mL (≈ 78.5 µM).

`Cc1[nH]c2c(C)cccc2c1CN1CCC(CO)(Cc2ccccc2)CC1` came in with a solubility (kinetic) of 28.8 µg/mL (≈ 79.4 µM).

Turning to `O=C(CN1C(=O)NC2(CCCCCCC2)C1=O)Nc1ccc(OC(F)F)cc1`, the solubility (kinetic) amounted to 20.8 µg/mL (≈ 52.6 µM). This solubility kinetic and that of the compound before are within 1.5-fold of each other.

`Cc1ccc(-c2nc(C=Nc3ccccc3)c(O)o2)cc1` gave a kinetic solubility of 4.7 µg/mL (≈ 16.9 µM).

Turning to `Cc1nc(C)c(-c2csc(Nc3ccccn3)n2)s1`, the kinetic solubility is 10.2 µg/mL (≈ 35.4 µM). Compared with the last compound, the solubility kinetic is about 2.2-fold higher.

The compound `Cc1ccc(S(=O)(=O)N2CCN(C)CC2)cc1C` returned a solubility (kinetic) of 31.3 µg/mL (≈ 117 µM).

Consider `Cc1ccc(C(=O)Nc2c(C)cc(C)c3cccnc23)cc1`, for which the kinetic solubility was 0.5 µg/mL (≈ 1.72 µM).

`COc1ccc(CNc2ccccn2)c(O)c1` registered a kinetic solubility above 34.5 µg/mL.

On to `COc1cc2sc(C)nc2c2ccccc12`, for which the solubility (kinetic) was 2.9 µg/mL (≈ 12.6 µM).

Values taken from PubChem BioAssay AID1996.
